Reference: US9475775B2, “Benzazepine dicarboxamide compounds” (Hoffmann-La Roche Inc., priority 2015, dated 2016)

Columns and labels:
[1] = target: human TLR8 (Homo sapiens (Human), UniProt Q9NR97); assay: HEK-Blue human TLR8 cells, NF-κB SEAP reporter assay; format: cell-based; settings: stimulation for 20 hours
Text: (§1) For TLR8 and TLR7 activity testing, HEK-Blue human TLR8 or TLR7 cells (Invivogen, San Diego, Calif., USA) are used, respectively. These cells are designed for studying the stimulation of human TLR8 or TLR7 by monitoring the activation of NF-κB. A SEAP (secreted embryonic alkaline phosphatase) reporter gene is placed under the control of the IFN-b minimal promoter fused to five NF-κB and AP-1-binding sites. Therefore the reporter expression is regulated by the NF-κB promoter upon stimulation of human TLR8 or TLR7 for 20 hours. The cell culture supernatant SEAP reporter activity was determined using Quanti Blue kit (Invivogen, San Diego, Ca, USA) at a wavelength of 640 nm, a detection medium that turns purple/blue in the presence of alkaline phosphatase. EC50 values were determined using Activity Base analysis (ID Business Solution, Limited).

[2] = target: human TLR7 (Homo sapiens (Human), UniProt Q9NYK1); assay: HEK-Blue human TLR7 cells, NF-κB SEAP reporter assay; format: cell-based; settings: stimulation for 20 hours
Sequence of human TLR7 (Q9NYK1 27-1049): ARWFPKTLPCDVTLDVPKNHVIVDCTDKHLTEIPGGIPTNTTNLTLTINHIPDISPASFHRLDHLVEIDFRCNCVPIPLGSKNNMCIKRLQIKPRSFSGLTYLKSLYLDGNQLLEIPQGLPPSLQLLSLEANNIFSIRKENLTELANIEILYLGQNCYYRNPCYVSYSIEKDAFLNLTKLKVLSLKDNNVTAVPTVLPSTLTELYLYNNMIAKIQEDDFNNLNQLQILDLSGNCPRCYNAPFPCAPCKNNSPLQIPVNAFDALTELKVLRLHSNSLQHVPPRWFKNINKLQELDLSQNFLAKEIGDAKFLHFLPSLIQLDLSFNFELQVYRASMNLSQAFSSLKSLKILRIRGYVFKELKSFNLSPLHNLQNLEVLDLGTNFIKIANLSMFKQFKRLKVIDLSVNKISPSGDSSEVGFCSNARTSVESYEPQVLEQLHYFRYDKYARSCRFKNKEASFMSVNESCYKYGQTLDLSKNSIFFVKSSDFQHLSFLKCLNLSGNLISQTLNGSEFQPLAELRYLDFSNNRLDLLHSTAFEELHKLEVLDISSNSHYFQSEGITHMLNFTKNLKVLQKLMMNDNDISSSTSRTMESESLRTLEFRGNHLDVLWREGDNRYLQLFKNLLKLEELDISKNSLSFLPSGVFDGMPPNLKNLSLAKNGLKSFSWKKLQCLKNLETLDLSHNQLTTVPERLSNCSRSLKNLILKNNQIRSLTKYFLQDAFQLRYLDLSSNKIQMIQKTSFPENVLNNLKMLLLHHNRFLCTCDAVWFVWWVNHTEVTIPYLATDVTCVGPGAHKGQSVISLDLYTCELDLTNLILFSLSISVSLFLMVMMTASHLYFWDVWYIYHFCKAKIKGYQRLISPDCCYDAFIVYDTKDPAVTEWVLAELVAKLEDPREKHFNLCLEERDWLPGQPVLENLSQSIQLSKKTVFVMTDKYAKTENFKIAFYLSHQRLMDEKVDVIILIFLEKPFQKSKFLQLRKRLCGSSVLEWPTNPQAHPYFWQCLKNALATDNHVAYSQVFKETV
Text: as §1

Sequence of human TLR8 (Q9NR97 27-1041): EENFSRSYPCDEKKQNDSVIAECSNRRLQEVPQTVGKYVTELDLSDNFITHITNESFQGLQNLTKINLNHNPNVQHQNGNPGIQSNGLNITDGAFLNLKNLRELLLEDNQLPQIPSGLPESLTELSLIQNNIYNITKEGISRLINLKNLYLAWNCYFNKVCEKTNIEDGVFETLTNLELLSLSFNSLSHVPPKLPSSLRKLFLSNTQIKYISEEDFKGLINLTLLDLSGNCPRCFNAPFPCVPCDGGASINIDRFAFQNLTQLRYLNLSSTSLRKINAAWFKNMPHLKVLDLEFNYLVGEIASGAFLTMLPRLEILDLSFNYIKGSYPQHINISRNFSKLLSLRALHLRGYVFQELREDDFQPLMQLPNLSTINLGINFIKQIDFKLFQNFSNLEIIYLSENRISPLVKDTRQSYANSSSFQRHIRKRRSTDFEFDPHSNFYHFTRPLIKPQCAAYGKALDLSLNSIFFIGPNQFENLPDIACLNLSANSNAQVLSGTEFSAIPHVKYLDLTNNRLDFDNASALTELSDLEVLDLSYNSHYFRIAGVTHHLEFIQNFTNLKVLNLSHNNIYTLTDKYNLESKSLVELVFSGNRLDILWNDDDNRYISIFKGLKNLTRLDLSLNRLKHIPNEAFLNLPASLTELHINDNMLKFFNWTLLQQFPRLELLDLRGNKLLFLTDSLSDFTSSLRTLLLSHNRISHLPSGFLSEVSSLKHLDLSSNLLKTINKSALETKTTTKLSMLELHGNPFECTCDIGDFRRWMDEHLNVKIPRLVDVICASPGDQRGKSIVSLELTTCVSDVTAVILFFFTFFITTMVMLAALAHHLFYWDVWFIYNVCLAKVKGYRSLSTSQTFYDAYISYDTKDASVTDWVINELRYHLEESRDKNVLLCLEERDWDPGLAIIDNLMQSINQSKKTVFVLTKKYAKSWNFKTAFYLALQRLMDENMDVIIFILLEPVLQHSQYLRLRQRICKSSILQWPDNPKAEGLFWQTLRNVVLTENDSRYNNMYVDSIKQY

Row | SMILES | EC50 [1] [nM] | EC50 [2] [nM]
1 | CCCN(CCC)C(=O)C1=Cc2ccc(C(=O)Nc3ccc(CCCN)cc3)cc2N=C(N)C1 [Example 61, 2-Amino-N8-[4-(3-aminopropyl)phenyl]-N4,N4-dipropyl-3H-1-benzazepine-4,8-dicarboxamide] | 5 | > 100000
2 | CCCN(CCC)C(=O)C1=Cc2ccc(C(=O)Nc3cccc(CCCCN)c3)cc2N=C(N)C1 [Example 62] | 7 | > 100000
3 | CCCCN(CCO)C(=O)C1=Cc2ccc(C(=O)Nc3cccc(C)c3)cc2N=C(N)C1 [Example 65, 2-Amino-N4-butyl-N4-(2-hydroxyethyl)-N8-(m-tolyl)-3H-1-benzazepine-4,8-dicarboxamide] | 6 | > 100000
4 | CCCN(CCC)C(=O)C1=Cc2ccc(C(=O)Nc3cncc(CNC(=O)OCc4ccccc4)c3)cc2N=C(N)C1 [Example 67, Benzyl N-[[5-[[2-amino-4-(dipropylcarbamoyl)-3H-1-benzazepine-8-carbonyl]amino]-3-pyridyl]methyl]carbamate] | 4 | > 100000
5 | CCCN(CCC)C(=O)C1=Cc2ccc(C(=O)Nc3cncc(CCc4ccccc4)c3)cc2N=C(N)C1 [Example 69, 2-Amino-N8-[5-(2-phenylethyl)-3-pyridyl]-N4,N4-dipropyl-3H-1-benzazepine-4,8-dicarboxamide] | 8 | > 100000
6 | CCCN(CCC)C(=O)C1=Cc2ccc(C(=O)Nc3cncc(CCc4ccc(OC)cc4)c3)cc2N=C(N)C1 [Example 70, 2-Amino-N8-[5-[2-(4-methoxyphenyl)ethyl]-3-pyridyl]-N4,N4-dipropyl-3H-1-benzazepine-4,8-dicarboxamide] | 12 | > 100000
7 | CCCN(CCC)C(=O)C1=Cc2ccc(C(=O)Nc3cncc(CCc4ccc(CN)cc4)c3)cc2N=C(N)C1 [Example 71, 2-Amino-N8-[5-[2-[4-(aminomethyl)phenyl]ethyl]-3-pyridyl]-N4,N4-dipropyl-3H-1-benzazepine-4,8-dicarboxamide] | 29 | > 100000
8 | CCCN(CCC)C(=O)C1=Cc2ccc(C(=O)Nc3cncc(CCc4cccc(OC)c4)c3)cc2N=C(N)C1 [Example 73, 2-Amino-N8-[5-[2-(3-methoxyphenyl)ethyl]-3-pyridyl]-N4,N4-dipropyl-3H-1-benzazepine-4,8-dicarboxamide] | 10 | > 100000
9 | CCCN(CC1CC1)C(=O)C1=Cc2ccc(C(=O)Nc3cncc(OCC)c3)cc2N=C(N)C1 [Example 79, 2-Amino-N4-(cyclopropylmethyl)-N8-(5-ethoxy-3-pyridyl)-N4-propyl-3H-1-benzazepine-4,8-dicarboxamide] | 2 | 31000

Results, then the molecule that gave them:

Row | EC50 [1] [nM] | EC50 [2] [nM] | SMILES
10 | 11 | > 100000 | CCCN(CCC)C(=O)C1=Cc2ccc(C(=O)Nc3ccc(F)c(CCN)c3)cc2N=C(N)C1 [Example 63, 2-Amino-N8-[3-(2-aminoethyl)-4-fluoro-phenyl]-N4,N4-dipropyl-3H-1-benzazepine-4,8-dicarboxamide]
11 | 29 | > 100000 | CCCN(CCC)C(=O)C1=Cc2ccc(C(=O)Nc3cc(Cl)cc(CCN)c3)cc2N=C(N)C1 [Example 64, 2-Amino-N8-[3-(2-aminoethyl)-5-chloro-phenyl]-N4,N4-dipropyl-3H-1-benzazepine-4,8-dicarboxamide]
12 | 31 | > 100000 | CCCN(CCC)C(=O)C1=Cc2ccc(C(=O)Nc3cncc(OCCN)c3)cc2N=C(N)C1 [Example 66, 2-Amino-N8-[5-(2-aminoethoxy)-3-pyridyl]-N4,N4-dipropyl-3H-1-benzazepine-4,8-dicarboxamide]
13 | 8 | > 100000 | CCCN(CCC)C(=O)C1=Cc2ccc(C(=O)Nc3cncc(/C=C/CN)c3)cc2N=C(N)C1 [Example 68, 2-Amino-N8-[5-[(E)-3-aminoprop-1-enyl]-3-pyridyl]-N4,N4-dipropyl-3H-1-benzazepine-4,8-dicarboxamide]
14 | 25 | > 100000 | CCCN(CCC)C(=O)C1=Cc2ccc(C(=O)Nc3cncc(CCCCCN)c3)cc2N=C(N)C1 [Example 72, 2-Amino-N8-[5-(5-aminopentyl)-3-pyridyl]-N4,N4-dipropyl-3H-1-benzazepine-4,8-dicarboxamide]
15 | 27 | > 100000 | CCCN(CCC)C(=O)C1=Cc2ccc(C(=O)Nc3cncc(CCCCCCN)c3)cc2N=C(N)C1 [Example 74, 2-Amino-N8-[5-(6-aminohexyl)-3-pyridyl]-N4,N4-dipropyl-3H-1-benzazepine-4,8-dicarboxamide]
16 | 10 | > 100000 | CCCN(CCC)C(=O)C1=Cc2ccc(C(=O)Nc3ccc(CCCN)nc3)cc2N=C(N)C1 [Example 75, 2-Amino-N8-[6-(3-aminopropyl)-3-pyridyl]-N4,N4-dipropyl-3H-1-benzazepine-4,8-dicarboxamide]
17 | 24 | > 100000 | CCCN(CCC)C(=O)C1=Cc2ccc(C(=O)Nc3cncc(CCCCN)c3)cc2N=C(N)C1 [Example 76, 2-Amino-N8-[5-(4-aminobutyl)-3-pyridyl]-N4,N4-dipropyl-3H-1-benzazepine-4,8-dicarboxamide]
18 | 8 | > 100000 | CCCN(CCC)C(=O)C1=Cc2ccc(C(=O)Nc3ccc(CCCCN)nc3)cc2N=C(N)C1 [Example 77, 2-Amino-N8-[6-(4-aminobutyl)-3-pyridyl]-N4,N4-dipropyl-3H-1-benzazepine-4,8-dicarboxamide]
19 | 12 | > 100000 | CCCN(CCC)C(=O)C1=Cc2ccc(C(=O)Nc3cncc(CN(C)C)c3)cc2N=C(N)C1 [Example 78, 2-Amino-N8-[5-[(dimethylamino)methyl]-3-pyridyl]-N4,N4-dipropyl-3H-1-benzazepine-4,8-dicarboxamide]
20 | 17 | > 100000 | CCCN(CCC)C(=O)C1=Cc2ccc(C(=O)Nc3cncc(CCN)c3)cc2N=C(N)C1 [Example 80, 2-Amino-N8-[5-(2-aminoethyl)-3-pyridyl]-N4,N4-dipropyl-3H-1-benzazepine-4,8-dicarboxamide]
